The target in this experiment is T1, XccFPR (Xanthomonas citri pv. citri, UniProt A0AAI7ZED9).
T1 sequence (A0AAI7ZED9 1-259): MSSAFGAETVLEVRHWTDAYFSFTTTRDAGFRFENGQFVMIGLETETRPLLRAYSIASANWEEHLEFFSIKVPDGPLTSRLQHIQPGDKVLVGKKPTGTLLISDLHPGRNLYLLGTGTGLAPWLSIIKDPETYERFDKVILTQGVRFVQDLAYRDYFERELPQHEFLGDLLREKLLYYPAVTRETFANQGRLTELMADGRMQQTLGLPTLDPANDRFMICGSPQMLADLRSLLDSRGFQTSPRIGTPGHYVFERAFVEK
Briefly: NADPH-dependent DCPIP diaphorase activity of XccFPR, dose-response of inhibitors. It is filed as biochemical, Xanthomonas citri subsp. citri. The protocol:
When assayed in regular cuvettes, the DCPIP diaphorase activity of XccFPR was determined at 25 °C using a Cary 100 (Agilent Technologies Inc., Santa Clara, CA, USA) spectrophotometer as previously established. […] Positive controls (without any hit compound) were included in every reaction set. […] The DMSO concentration was kept at 2% in all samples. All kinetic experiments were performed in triplicate. The effect of the inhibitors on Km and kcat was determined by fitting the datasets to the Michaelis-Menten model. Additionally, data were globally fit to either Lineweaver-Burk equations for uncompetitive or non-competitive inhibition, yielding Ki for each compound (Equations (1) and (2), respectively).

Where [1] appears, read: 25 °C, 2% DMSO, pH 8.0, 20 nM XccFPR, 95 µM DCPIP, 50 μM NADPH.

Like-named read-outs stand apart in the source and are kept apart here.

What is called IC50 is the point on the concentration scale where inhibition reaches its midpoint. The % Inhibition is the change of the read-out against control, counted positive when it falls. Take `CSc1sc(NC(=O)N2CCOCC2)c(-c2ccc(Cl)cc2)c1C#N` [D4, N-[3-(4-chlorophenyl)-4-cyano-5-(methylsulfanyl)thiophen-2-yl]morpholine-4-carboxamide]: the IC50 came out at 113 ± 1 µM. Also, the “% Inhibition at ICmax” value under setting [1] turned out to be 78 ± 2%.

For the molecule “benzalkonium chloride [C3, reference compound]”, where the note is “25 °C, 50 mM Tris/HCl, 2% DMSO, pH 8.0, 20 nM XccFPR, 95 µM DCPIP, 50 μM NADPH”, the “ICmax (concentration causing maximal inhibition)” value amounted to 300 ± 3 µM. In addition, the IC50 (25 °C, 50 mM Tris/HCl, 2% DMSO, pH 8.0, 20 nM XccFPR, 95 µM DCPIP, 50 μM NADPH, compound 0–800 μM) is 190 ± 1 µM. Further, the “% Inhibition at ICmax” value under setting [1] is listed as 31 ± 8%. `O=C(CSc1nc2cc(Cl)ccc2o1)Nc1cc(C(F)(F)F)cc(C(F)(F)F)c1` [C5, N-[3,5-bis(trifluoromethyl)phenyl]-2-[(5-chloro-1,3-benzoxazol-2-yl)sulfanyl]acetamide] displayed a half-inhibitory concentration (IC50) of 46 ± 1 µM.

`Clc1ccc2sc(SCc3ccccc3)nc2c1` [C8, 2-(benzylsulfanyl)-5-chloro-1,3-benzothiazole] had an IC50 of 79 ± 1 µM. Moreover, the “% Inhibition at ICmax” value under setting [1] came out at 88 ± 9%. In the same order, the values of `O=C(Nc1cccc(Cl)c1)Nc1ccccc1NS(=O)(=O)c1cccs1` [D1, 3-(3-chlorophenyl)-1-[2-(thiophene-2-sulfonamido)phenyl]urea] are 76 ± 1 µM and 98 ± 1%. In the same order, the values of `Cc1ccc(C)c(CSc2nc(C3CCCCC3)c(C#N)c(=O)[nH]2)c1` [C24, 4-cyclohexyl-2-{[(2,5-dimethylphenyl)methyl]sulfanyl}-6-oxo-1,6-dihydropyrimidine-5-carbonitrile] are 35 ± 1 µM and 43 ± 4%. Molecule `Cc1cccc(C)c1NC(=O)Nc1cccs1` [D7, 1-(2,6-dimethylphenyl)-3-thiophen-2-ylurea] returned an IC50 of 151 ± 1 µM. Further, the “% Inhibition at ICmax” value under setting [1] was 84 ± 1%.

Turning to `CCCCc1ccc(NC(=O)CSc2nc(C3CCCCC3)c(C#N)c(=O)[nH]2)c(C)c1` [C28, N-(4-butyl-2-methylphenyl)-2-[(5-cyano-4-cyclohexyl-6-oxo-1,6-dihydropyrimidin-2-yl)sulfanyl]acetamide], the IC50 was > 652 µM. Further, the “% Inhibition at ICmax” value under setting [1] was determined as 81 ± 2%. `O=C(CCn1c(=O)oc2ccccc21)Sc1ccc(Cl)cc1Cl` [C15, 3-{3-[(2,4-dichlorophenyl)sulfanyl]-3-oxopropyl}-2,3-dihydro-1,3-benzoxazol-2-one] came in with an IC50 of 30 ± 1 µM. Molecule `Brc1csc(C2SCCS2)c1` [C31, 2-(4-bromothiophen-2-yl)-1,3-dithiolane] registered an IC50 of 90 ± 1 µM. Moreover, under setting [1], the “% Inhibition at ICmax” value amounted to 85 ± 1%. In the same order, the values of `O=[N+]([O-])c1ccc(Oc2c(Cl)cccc2Cl)cc1` [C4, 1,3-dichloro-2-(4-nitrophenoxy)benzene] are 36 ± 1 µM and 86 ± 1%. Regarding `N#CC(C#N)=C1SC=C(c2ccc(Cl)cc2)S1` [C23, 2-[4-(4-chlorophenyl)-2H-1,3-dithiol-2-ylidene]propanedinitrile], the IC50 is > 604 µM. The “% Inhibition at ICmax” value under setting [1] worked out at 73 ± 3%. In the same order, the values of `Cc1ccc2oc(=O)n(CCC(=O)NNC(=O)c3nc(-c4cccs4)no3)c2c1` [C32, 3-(5-methyl-2-oxo-2,3-dihydro-1,3-benzoxazol-3-yl)-N'-[3-(thiophen-2-yl)-1,2,4-oxadiazole-5-carbonyl]propanehydrazide] are > 2720 µM and ~56%.

For the molecule `CCOC(=O)C1=C(C)NC(C)=C(C(=O)OCC)C1c1ccc(-c2cc(C(F)(F)F)ccc2Cl)o1` [C21, 3,5-diethyl 4-{5-[2-chloro-5-(trifluoromethyl)phenyl]furan-2-yl}-2,6-dimethyl-1,4-dihydropyridine-3,5-dicarboxylate], it took 14 ± 1 µM to reach half-maximal inhibition (IC50). Besides, the “% Inhibition at ICmax” value under setting [1] was 62 ± 7%.

Regarding `Cc1nc(-c2cc(C#N)c(SCCNS(=O)(=O)c3cccc(C(F)(F)F)c3)nc2C)cs1` [C19, N-(2-{[3-cyano-6-methyl-5-(2-methyl-1,3-thiazol-4-yl)pyridin-2-yl]sulfanyl}ethyl)-3-(trifluoromethyl)benzene-1-sulfonamide], it took 17 ± 1 µM to reach half-maximal inhibition (IC50). `O=C(COC(=O)c1cccc(I)c1)c1ccccc1` [C35, 2-oxo-2-phenylethyl 3-iodobenzoate] registered an IC50 of 63 ± 1 µM. In addition, the “% Inhibition at ICmax” value under setting [1] is recorded as 100 ± 1%. `Cn1cc(Br)c(/C=N/Nc2ccc(Cl)cc2Cl)n1` [C17, 4-bromo-3-[(1E)-[2-(2,4-dichlorophenyl)hydrazin-1-ylidene]methyl]-1-methyl-1H-pyrazole] gave an IC50 of 27 ± 2 µM. Regarding `N#CC(NCc1ccccc1)c1ccc(Cl)c(Cl)c1` (centres unmarked) [C13, 2-(benzylamino)-2-(3,4-dichlorophenyl)acetonitrile], the IC50 was 95 ± 1 µM. Also, under setting [1], the “% Inhibition at ICmax” value was determined as 80 ± 3%. `O=C(O)c1c2c(nc3ccccc13)CSc1ccc(Cl)cc1-2` [C30, 2-chloro-6H-5-thia-7-azatetraphene-12-carboxylic acid] displayed a half-inhibitory concentration (IC50) of 29 ± 1 µM. Take `CCOC(=O)CNC(=O)CCc1cc(OC)c(OC)c(OC)c1` [C33, ethyl 2-[3-(3,4,5-trimethoxyphenyl)propanamido]acetate]: the IC50 was > 1920 µM. Besides, the “% Inhibition at ICmax” value under setting [1] is ~53%. Molecule `N#CC1=C(N)OC2=C(COc3ccc(F)cc32)C1c1ccc(Cl)cc1` (centres unmarked) [C34, 2-amino-4-(4-chlorophenyl)-9-fluoro-4H,5H-pyrano[3,2-c]chromene-3-carbonitrile] had an IC50 of 210 ± 1 µM. The “% Inhibition at ICmax” value under setting [1] is on record as ~87%. In the same order, the values of `C#CC1(NC(=O)NCCCCCCNC(=O)NC2(C#C)CCCCC2)CCCCC1` [C7, 3-(1-ethynylcyclohexyl)-1-(6-{[(1-ethynylcyclohexyl)carbamoyl]amino}hexyl) urea] are 85 ± 16 µM and 97 ± 7%.

On to `O=C(Nc1cccc(Cl)c1)Nc1ccc(F)c(Cl)c1` [D3, 1-(3-Chloro-4-fluoro-phenyl)-3-(3-chloro-phenyl)-urea], for which the IC50 is > 5000 µM. `Cc1oc(C(=O)NNC(=O)Nc2cccc(C(F)(F)F)c2)nc1-c1ccccc1` [C9, 5-methyl-4-phenyl-N-({[3-(trifluoromethyl)phenyl]carbamoyl}amino)-1,3-oxazole-2-carboxamide] returned an IC50 of 147 ± 1 µM. Under setting [1], the “% Inhibition at ICmax” value came out at 60 ± 4%.

Consider `O=C1/C(=C/c2cccs2)CCC/C1=C\c1cccs1` [C22, (2E,6E)-2,6-bis[(thiophen-2-yl)methylidene]cyclohexan-1-one], for which the IC50 turned out to be 58 ± 2 µM. Further, under setting [1], the “% Inhibition at ICmax” value is reported as 100 ± 4%. Taken in the same sequence, the figures for `CC(C)S(=O)(=O)c1c(SCC#N)sc(C#N)c1N` [C27, 3-amino-5-[(cyanomethyl)sulfanyl]-4-(propane-2-sulfonyl)thiophene-2-carbonitrile] were 89 ± 1 µM and 92 ± 3%. `O=C(Nc1ccccc1-c1nc(-c2ccc(Cl)cc2)no1)C(F)(F)F` [C29, N-{2-[3-(4-chlorophenyl)-1,2,4-oxadiazol-5-yl]phenyl}-2,2,2-trifluoroacetamide]: the concentration for half-maximal inhibition (IC50) is 11 ± 2 µM. For the same molecule, the “% Inhibition at ICmax” value under setting [1] stood at 27 ± 2%. In the same order, the values of `Nc1c(Cl)cc(C(=O)Nc2cc(Cl)c(Cl)cc2Cl)cc1Cl` [C10, 4-amino-3,5-dichloro-N-(2,4,5-trichlorophenyl)benzamide] are 98 ± 1 µM and 57 ± 7%. In turn, `COC(=O)c1sccc1NC(=O)Cc1cccs1` [C26, methyl 3-[2-(thiophen-2-yl)acetamido]thiophene-2-carboxylate] showed an IC50 of 33 ± 2 µM. In turn, `COc1ccc(C(C)=O)cc1CO/N=C1\CSCc2ccccc21` [C16, 1-{3-[({[(4Z)-3,4-dihydro-1H-2-benzothiopyran-4-ylidene]amino}oxy)methyl]-4-methoxyphenyl}ethan-1-one] registered an IC50 of 58 ± 1 µM. Moreover, the “% Inhibition at ICmax” value under setting [1] amounted to 79 ± 6%. Take `Cc1cc(C)c2cc(C(=O)Nc3ccc4c(c3)OCO4)[nH]c2c1` [C20, N-(2H-1,3-benzodioxol-5-yl)-4,6-dimethyl-1H-indole-2-carboxamide]: the IC50 was 53 ± 2 µM. In addition, the “% Inhibition at ICmax” value under setting [1] was determined as 100 ± 1%. In turn, `Nc1ccccc1Sc1cc(C(F)(F)F)cc([N+](=O)[O-])c1Sc1ccccc1N` [C18, 2-({2-[(2-aminophenyl)sulfanyl]-6-nitro-4-(trifluoromethyl)phenyl}sulfanyl)aniline] displayed an IC50 of 24 ± 1 µM. Take `CSc1sc(C(=O)O)c(-c2cccc(Cl)c2)c1C#N` [D6, 3-(3-chlorophenyl)-4-cyano-5-(methylsulfanyl)thiophene-2-carboxylic acid]: the IC50 was > 1500 µM. `O=C(O/N=C/Nc1ncc(-c2ccc(Br)s2)s1)c1ccc([N+](=O)[O-])cc1` [C25, (E)-({[5-(5-bromothiophen-2-yl)-1,3-thiazol-2-yl]amino}methylidene)amino 4-nitrobenzoate] displayed an IC50 of 91 ± 1 µM. Besides, the “% Inhibition at ICmax” value under setting [1] is listed as ~91%. `CCOC(=O)c1c(C)c(C#N)c(NC(=O)c2ccccc2)n1-c1ccccc1` [C14, ethyl 5-benzamido-4-cyano-3-methyl-1-phenyl-1H-pyrrole-2-carboxylate]: the IC50 was 127 ± 1 µM. The “% Inhibition at ICmax” value under setting [1] was determined as 85 ± 4%.

For the origin of these results see PMC5943930, “Identification of Inhibitors Targeting Ferredoxin-NADP^+ Reductase from the Xanthomonas citri subsp. citri Phytopathogenic Bacteria” (Molecules : A Journal of Synthetic Chemistry and Natural …, 2017).
